What all share (assay type): in vivo, human
A short description of assay [1]: Fat-like richness and smoothness imparted to low-fat yogurt, quantitative sensory evaluation test. Conditions: Table 10; for Fat-like richness / Smoothness: n=12, control 0, strong 3, very strong 5 points. The method, then:
The quantitative sensory evaluation test was performed as follows. Each of γ-Glu-Val-Gly and cinacalcet was mixed with commercially-available low-fat yogurt (non-fat milk solids content: 10.0%, milk fat content: 1.0%) at a concentration of 0.00001 to 1 g/dl, and the intensity of imparting fat-like richness was measured.
It should be noted that after each sample was dissolved in low-fat yogurt, and a sample, the pH of which was lowered, was adjusted with NaOH so that the pH might be ±0.2 with respect to the pH of the […] free of a sample.
(§1) The sensory score for fat-like richness and smoothness was defined as follows: control (free of sample): 0 point; strong: 3 points; and very strong: 5 points. Then, the test was performed with n=12.

Assay [2] is described as follows: Fat-like richness and smoothness imparted to low-fat milk, quantitative sensory evaluation test. The settings on record: for Taste profile / Fat-like richness / Smoothness: Table 8; for Fat-like richness / Smoothness: n=12, control 0, strong 3, very strong 5 points. As for the experimental part:
The quantitative sensory evaluation test was performed as follows. Each of γ-Glu-Cys-Gly (glutathione), γ-Glu-Val-Gly, and γ-Glu-Abu-Gly was mixed with commercially-available low-fat milk (non-fat milk solids content: 8.6% or more, milk fat content: 1.5%) at a concentration of 0.00001 to 1 g/dl, and the intensity of imparting fat-like richness was measured.
It should be noted that each peptide was dissolved in low-fat milk, and then a sample, the pH of which was lowered, was adjusted with NaOH so that the pH might be ±0.2 with respect to the pH of the low-fat milk free of peptide.
The sensory score for fat-like richness and smoothness was defined as follows: control (free of peptide): 0 point; strong: 3 points; and very strong: 5 points. Then, the test was performed with n=12. […] As clear from Table 6, it was confirmed that the peptide imparted fat-like richness and smoothness to low-fat milk at a lower concentration than glutathione.
The quantitative sensory evaluation test was performed as follows. Each of γ-Glu-Val-Gly and cinacalcet was mixed with commercially-available low-fat milk (non-fat milk solids content: 8.6% or more, milk fat content: 1.5%) at a concentration of 0.00001 to 1 g/dl, and the intensity of imparting fat-like richness was measured.
It should be noted that each sample was dissolved in low-fat milk, and then a sample, the pH of which was lowered, was adjusted with NaOH so that the pH might be ±0.2 with respect to the pH of the low-fat milk free of a sample.
as §1

The nature of assay [3]: Fat-like richness and smoothness imparted to low-calorie mayonnaise, quantitative sensory evaluation test. The settings on record: for Taste profile / Fat-like richness / Smoothness: Table 9; for Fat-like richness / Smoothness: control 0, strong 3, very strong 5 points. As for the experimental part: In the same manner as that in Example 1 except that commercially-available low-calorie mayonnaise (having a fat content reduced by 50% compared with a normal product) was used instead of low-fat milk, each peptide was measured for its fat-like richness-imparting intensity.
In the same manner as that in Example 2, each sample was measured for its intensity of imparting fat-like richness.

[4] abbreviates: 0.0001 g/dl in low-calorie mayonnaise.
The mark [5] stands for this setting: 0.001 g/dl in low-calorie mayonnaise.

The results in this text go back to US8399417B2, “Food” (Ajinomoto Co., Inc., priority 2007, dated 2013).

SMILES strings stand for the structures.

On to `C[C@@H](NCCCc1cccc(C(F)(F)F)c1)c1cccc2ccccc12` [Cinacalcet, (R)—N-(3-(3-(trifluoromethyl)phenyl)propyl)-1-(1-naphthyl)ethylamine, reference compound], for which the Taste profile entry in assay [1] (0.0001 g/dl in low-fat yogurt) was “Lasting is present in aftertaste”; in assay [1] (0.001 g/dl in low-fat yogurt), “Lasting is present in aftertaste”; in assay [2] (0.0001 g/dl in low-fat milk), “Lasting is present in aftertaste”; in assay [2] (0.001 g/dl in low-fat milk) it was “Thickness and lasting”; in assay [3] (setting [4]) it was “Lasting is present in aftertaste”; in assay [3] (setting [5]), “Thickness and lasting”. Further, the Fat-like richness was found to be 1.5 points in assay [1] (0.0001 g/dl in low-fat yogurt); 4.0 points in assay [1] (0.001 g/dl in low-fat yogurt (milk fat 1.0%)); 1.3 points in assay [2] (0.0001 g/dl in low-fat milk); 4.0 points in assay [2] (0.001 g/dl in low-fat milk); 1.8 points in assay [3] (setting [4]); 4.3 points in assay [3] (setting [5]). For the same compound, the Smoothness in assay [1] (0.0001 g/dl in low-fat yogurt) was 2.0 points; in assay [1] (0.001 g/dl in low-fat yogurt), 4.5 points; in assay [2] (0.0001 g/dl in low-fat milk) it was 1.7 points; in assay [2] (0.001 g/dl in low-fat milk) it was 4.2 points; in assay [3] (setting [4]), 2.5 points; in assay [3] (setting [5]), 4.8 points. In addition, the “concentration at which fat-like richness and smoothness are imparted, compared with γ-Glu-Val-Gly” value is given as “comparable concentration to γ-Glu-Val-Gly” in assay [2] (low-fat milk, conclusion from Table 8) and “comparable concentration to γ-Glu-Val-Gly” in assay [3] (low-calorie mayonnaise, conclusion from Table 9).
